PubChem BioAssay AID248 (DTP/NCI, 2004)
Toxic doses and inconclusive results are not listed. Rule as the data show it: active = T/C of 150% or more; inactive = T/C below 125%.

System: L1210 leukemia ip in BDF1 mice, survival T/C
Test: NCI In Vivo Anticancer Drug Screen. Data for tumor model L1210 Leukemia (intraperitoneal) in B6D2F1 (BDF1) mice
Settings: endpoint: mean survival time, higher = longer survival
Method in brief: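 Tumor cells were implanted, animals were treated, and survival was followed. The result divides the treated measurement by the vehicle-control measurement.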

[1] = dose: 100.0 mg/kg/injection, schedule: Q04DX002 (ip), vehicle: saline
[2] = dose: 200.0 mg/kg/injection, schedule: Q04DX002 (ip), vehicle: saline
[3] = dose: 400.0 mg/kg/injection, schedule: Q04DX002 (ip), vehicle: saline
[4] = dose: 100.0 mg/kg/injection, schedule: Q01DX009 (ip), vehicle: saline with Tween-80
[5] = dose: 100.0 mg/kg/injection, schedule: Q04DX003 (ip), vehicle: saline with Tween-80
[6] = dose: 200.0 mg/kg/injection, schedule: Q01DX009 (ip), vehicle: saline with Tween-80
[7] = dose: 200.0 mg/kg/injection, schedule: Q04DX003 (ip), vehicle: saline with Tween-80
[8] = dose: 400.0 mg/kg/injection, schedule: Q01DX009 (ip), vehicle: saline with Tween-80
[9] = dose: 400.0 mg/kg/injection, schedule: Q04DX003 (ip), vehicle: saline with Tween-80
[10] = dose: 50.0 mg/kg/injection, schedule: Q01DX001 (ip), vehicle: carboxymethylcellulose (CMC)
[11] = dose: 100.0 mg/kg/injection, schedule: Q01DX001 (ip), vehicle: carboxymethylcellulose (CMC)
[12] = dose: 200.0 mg/kg/injection, schedule: Q01DX001 (ip), vehicle: carboxymethylcellulose (CMC)
[13] = dose: 400.0 mg/kg/injection, schedule: Q01DX001 (ip), vehicle: carboxymethylcellulose (CMC)
[14] = dose: 100.0 mg/kg/injection, schedule: Q04DX003 (ip), vehicle: saline
[15] = dose: 200.0 mg/kg/injection, schedule: Q04DX003 (ip), vehicle: saline
[16] = dose: 400.0 mg/kg/injection, schedule: Q04DX003 (ip), vehicle: saline
[17] = dose: 100.0 mg/kg/injection, schedule: Q01DX009 (ip), vehicle: saline
[18] = dose: 200.0 mg/kg/injection, schedule: Q01DX009 (ip), vehicle: saline

Measured: T/C

Nc1cc(=O)[nH]c(=S)[nH]1
inactive: [1] 99 % of control | [2] 92 % of control | [3] 101 % of control

O=c1c(N2CCOCC2)c(N2CCOCC2)c1=O
inactive: [4] 100 % of control | [5] 104 % of control | [6] 100 % of control | [7] 103 % of control | [8] 100 % of control | [9] 95 % of control

O=[N+]([O-])c1ccc2c(c1)S(=O)c1ccccc1-2 (stereo unspecified)
inactive: [5] 109 % of control | [7] 94 % of control

COc1ccc(/C=N/Nc2nnc(N/N=C/c3ccc(OC)c(O)c3)c3ccccc23)cc1O
inactive: [10] 103 % of control | [11] 103 % of control | [12] 103 % of control | [13] 100 % of control

COC1OC(n2cnc3ncn(Cc4ccccc4)c3c2=N)C2OC(C)(C)OC12 (stereo unspecified)
inactive: [14] 97 % of control | [15] 92 % of control

Cc1cc2c(cc1C)NC(=O)CC(c1ccccc1)=N2
inactive: [11] 98 % of control | [12] 93 % of control | [13] 98 % of control

C=C(C)Cc1cnc(SC)[nH]c1=O
inactive: dose: 50.0 mg/kg/injection, schedule: Q01DX001 (ip), vehicle: Klucel (hydroxypropylcellulose) (HPC) 98 % of control | dose: 100.0 mg/kg/injection, schedule: Q01DX001 (ip), vehicle: Klucel (hydroxypropylcellulose) (HPC) 100 % of control | dose: 200.0 mg/kg/injection, schedule: Q01DX001 (ip), vehicle: Klucel (hydroxypropylcellulose) (HPC) 98 % of control

CCC(=O)C(CC)c1ccccc1OC (stereo unspecified)
inactive: [4] 95 % of control | [14] 94 % of control | [6] 95 % of control | [15] 97 % of control | [8] 108 % of control | [16] 97 % of control

CN(C)c1ccc(O)c2c1CC1CC3C(N(C)C)C(=O)C(C(N)=O)=C(O)C3(O)C(=O)C1=C2O (stereo unspecified)
inactive: [5] 100 % of control | [7] 108 % of control

C=CC[As](C)(=O)O
inactive: [17] 109 % of control | [18] 94 % of control

[Cu+2].[Cu+2].[O-]CCCN=Cc1ccccc1[O-].[O-]CCCN=Cc1ccccc1[O-]
inactive: dose: 75.0 mg/kg/injection, schedule: Q01DX001 (ip), vehicle: other 97 % of control | dose: 150.0 mg/kg/injection, schedule: Q01DX001 (ip), vehicle: other 111 % of control | dose: 300.0 mg/kg/injection, schedule: Q01DX001 (ip), vehicle: other 102 % of control

CCOC(=O)C(F)=C(CF)CF
inactive: [10] 105 % of control | [11] 111 % of control | [12] 109 % of control | [13] 94 % of control

O=C(O)c1ccc(NC(=S)Nc2ccc(C(=O)O)cc2)cc1
inactive: [4] 93 % of control | [14] 94 % of control | [6] 112 % of control | [15] 100 % of control | [8] 93 % of control | [16] 104 % of control

O=C(N/N=C\c1ccc(N(CCCl)CCCl)cc1)c1ccccn1
inactive: [10] 108 % of control | [11] 108 % of control | [12] 103 % of control | [13] 100 % of control

CC1=C/C(=N/NC(N)=O)CC(C)C1 (stereo unspecified)
inactive: [14] 100 % of control | [15] 98 % of control | [16] 97 % of control

O=C(O)C1CCC2SC(F)(F)C(F)(F)C2C1 (stereo unspecified)
inactive: [5] 98 % of control | [7] 96 % of control | [9] 98 % of control

c1ccc(-c2cccc[c]2[Hg][c]2ccccc2-c2ccccc2)cc1
inactive: [11] 96 % of control | [12] 93 % of control | [13] 93 % of control

Cc1cc(=O)[nH]c(N/N=C/c2ccccc2)n1
inactive: dose: 100.0 mg/kg/injection, schedule: Q01DX009 (ip), vehicle: gum acacia 88 % of control | dose: 100.0 mg/kg/injection, schedule: Q04DX003 (ip), vehicle: gum acacia 93 % of control | dose: 200.0 mg/kg/injection, schedule: Q04DX003 (ip), vehicle: gum acacia 97 % of control | dose: 400.0 mg/kg/injection, schedule: Q01DX009 (ip), vehicle: gum acacia 91 % of control | dose: 400.0 mg/kg/injection, schedule: Q04DX003 (ip), vehicle: gum acacia 93 % of control

C=CCn1c(-c2cccs2)nc2c(Cl)ncnc21
inactive: dose: 24.0 mg/kg/injection, schedule: Q01DX009 (ip), vehicle: steriod suspending solution 88 % of control | dose: 39.0 mg/kg/injection, schedule: Q01DX009 (ip), vehicle: steriod suspending solution 90 % of control

NC(=O)c1nc(C(F)(F)F)[nH]c1C(N)=O
inactive: dose: 50.0 mg/kg/injection, schedule: Q01DX009 (ip), vehicle: water 96 % of control | dose: 100.0 mg/kg/injection, schedule: Q01DX009 (ip), vehicle: water 102 % of control | dose: 100.0 mg/kg/injection, schedule: Q04DX003 (ip), vehicle: water 100 % of control | dose: 200.0 mg/kg/injection, schedule: Q01DX009 (ip), vehicle: water 109 % of control | dose: 200.0 mg/kg/injection, schedule: Q04DX003 (ip), vehicle: water 100 % of control | dose: 300.0 mg/kg/injection, schedule: Q01DX009 (ip), vehicle: water 91 % of control

Oc1c(Cl)cc(Cl)cc1Sc1cc(Cl)cc(Cl)c1O
inactive: [1] 114 % of control | [2] 100 % of control | [3] 114 % of control

O=[N+]([O-])c1ccc(N=Nc2ccc3c(c2)-c2ccccc2C3=P(c2ccccc2)(c2ccccc2)c2ccccc2)cc1
inactive: [11] 108 % of control | [12] 98 % of control | [13] 93 % of control

CCCCCOc1ccc(C(=O)/C(Br)=C/C(=O)O)cc1
inactive: dose: 12.5 mg/kg/injection, schedule: Q01DX009 (ip), vehicle: saline with Tween-80 98 % of control | dose: 25.0 mg/kg/injection, schedule: Q01DX009 (ip), vehicle: saline with Tween-80 96 % of control | dose: 50.0 mg/kg/injection, schedule: Q01DX009 (ip), vehicle: saline with Tween-80 101 % of control

[O-]c1n[n+](C2CCCCC2)no1
inactive: dose: 5.0 mg/kg/injection, schedule: Q01DX001 (ip), vehicle: other 106 % of control | dose: 10.0 mg/kg/injection, schedule: Q01DX001 (ip), vehicle: other 101 % of control

CCNCCC#N
inactive: [17] 111 % of control | dose: 100.0 mg/kg/injection, schedule: Q04DX003 (ip), vehicle: Klucel (hydroxypropylcellulose) (HPC) 108 % of control | [18] 107 % of control | dose: 200.0 mg/kg/injection, schedule: Q04DX003 (ip), vehicle: Klucel (hydroxypropylcellulose) (HPC) 107 % of control | dose: 400.0 mg/kg/injection, schedule: Q04DX003 (ip), vehicle: Klucel (hydroxypropylcellulose) (HPC) 111 % of control

Cc1cc2ccccc2[n+](C)c1-c1ccccc1Br
inactive: dose: 5.0 mg/kg/injection, schedule: Q01DX001 (ip), vehicle: saline 108 % of control | dose: 10.0 mg/kg/injection, schedule: Q01DX001 (ip), vehicle: saline 95 % of control

O=CNn1cn[nH]c1=S
inactive: [11] 95 % of control | [12] 98 % of control | [13] 95 % of control

CC(=O)NC(N)=NCCCC(N)C(=O)O (stereo unspecified)
inactive: dose: 75.0 mg/kg/injection, schedule: Q04DX003 (ip), vehicle: Klucel (hydroxypropylcellulose) (HPC) 91 % of control | dose: 150.0 mg/kg/injection, schedule: Q04DX003 (ip), vehicle: Klucel (hydroxypropylcellulose) (HPC) 94 % of control | dose: 300.0 mg/kg/injection, schedule: Q04DX003 (ip), vehicle: Klucel (hydroxypropylcellulose) (HPC) 94 % of control
